Test results reported in PubChem BioAssay AID2060607 (Molecular Pharmacology Branch, DTP, NCI, 2025).

System: 876862-298-R-J1-PDC complex spheroids, viability % test/control
Assay: Anticancer human tumor 876862-298-R-J1-PDC patient-derived endometrial carcinoma cell line growth inhibition [CLK]
Details: for IC50: curve of first compound; for viability, T/C: stronger effect = lower value
Text: A high-throughput screen of multi-cell type tumor spheroids was designed to identify active combinations of […] and targeted small molecules. Complex spheroids include a stromal component modeled by human endothelial cells (HUVEC) and fibroblasts modeled by human mesenchymal stem cells (MSCs). The concentration ranges selected for each drug and investigational agent were based upon clinically achievable concentrations if the clinical Cmax of the agent was known.
Compounds. The drugs and investigational agents: cirtuvivint (SM08502; NSC835563), CC-671 (NSC850746), vemurafenib (NSC761431), tapotoclax (NSC804041), sotorasib (NSC818433), adagrasib (NSC831453), MRTX-1133 (NSC836407), BAY2416964 (NSC825713), copanlisib (NSC816437), inavolisib (NSC800729), abemaciclib (NSC768073), osimertinib (NSC779217), entinostat (NSC756642), eltanexor (KPT-8602, NSC794443), venetoclax (NSC766270), ceralasertib (NSC777638), bortezomib (NSC756655), olaparib (NSC753686), talazoparib (NSC767125), alisertib (NSC759677), peposertib (NSC802822), gemcitabine (NSC613327), 5-fluorouracil (NSC19893), SN-38 (NSC673596), oxaliplatin (NSC266046), paclitaxel (NSC125973), and doxorubicin (NSC123127), were obtained from the National Cancer Institute (NCI) Developmental Therapeutics Program Chemical Repository. The FDA-approved anticancer drug set is available from the Developmental Therapeutics Program at https://dtp.cancer.gov/organization/dscb/obtaining/available plates.htm. […] The stock solutions were prepared in dimethyl sulfoxide (DMSO, Sigma-Aldrich, St. Louis, MO, cat. D2650), except for the platinum complexes which were prepared in saline (Quality Biological, Gaithersburg, MD, cat. 114-055-101), at 800-fold the tested concentration and stored at -70 degrees C prior to their use. All drugs and investigational agents were tested over a range starting from a high concentration at or near the clinical Cmax and decreasing in half-log increments. If the clinical Cmax for an agent had not been determined, the highest concentration tested was 10 microM.
Cell Culture. All cells were maintained in an incubator at 37 degrees C and 5% CO2 with 95% humidity. The PDC lines were cultured according to standard operating procedures established by the NCI PDMR. Briefly, all PDCs were thawed and cultured in Matrigel-coated flasks prepared with a working solution of 1X Ham's F-12 nutrient mix, without supplementation (Invitrogen, Waltham, MA, cat. 11765054), 100 U/mL penicillin-streptomycin (Invitrogen, cat. 15140122), and 2.5% Matrigel (Corning Inc., Corning, NY, cat. 354248) for the first three passages. The 947758-054-R-J2-PDC line was cultured in 6B/Colon 1A media, which includes advanced DMEM/F-12 (Thermo Fisher Scientific, cat. 12634028), 10 mM HEPES (Thermo Fisher Scientific, cat. 15630080), 1X GlutaMAX supplement (Thermo Fisher Scientific, cat. 35050061), 0.1 mg/mL primocin (InvivoGen, cat. ant-pm-2), 10% defined fetal bovine serum, heat inactivated (HyClone Laboratories Inc., cat. SH30070.03HI), 1.25 mM N-Acetyl-L-cysteine (Sigma-Aldrich, cat. A9165), 10 mM nicotinamide (Sigma-Aldrich, cat. N0636), 1X B-27 supplement (Thermo Fisher Scientific, cat. 17504044), 1X N-2 supplement (Thermo Fisher Scientific, cat. 17502048), and 10 microM Y-27632 dihydrochloride (Tocris Bioscience, cat. 1254). The 876862-298-R-J1-PDC was cultured in 6E media, which includes all 6B/Colon 1A media components plus 50% L-WRN conditioned media (ATCC, cat. CRL-3276), 50 ng/mL recombinant human EGF recombinant protein (hEGF; Thermo Fisher Scientific, cat. PHG0311), 10 ng/mL recombinant human fibroblast growth factor 10 (hGFG-10; PeproTech, cat. 100-26), 1 ng/mL recombinant human fibroblast growth factor 2 (hFGF-2; PeproTech, cat. 100-18B), and 1 µM prostaglandin E2 (PGE2; Tocris, cat. 2296). The 227483-062-R1-J1-PDC line was cultured in Panc media, containing all 6E components except hFGF-2, with the addition of 500 nM SB-431542 (Selleckchem, cat. S1067) and 10 nM gastrin (Tocris, cat. 3006). […]

[1] = second compound 0.0316 µM, first compound 0.0316 µM
[2] = second compound 0.0316 µM, first compound 0.1 µM
[3] = second compound 0.0316 µM, first compound 0.316 µM
[4] = second compound 0.0316 µM, first compound 1 µM
[5] = second compound 0.0316 µM, first compound 3.16 µM
[6] = second compound 0.0316 µM, first compound 10 µM
[7] = second compound 0.1 µM, first compound 0.0316 µM
[8] = second compound 0.1 µM, first compound 0.1 µM
[9] = second compound 0.1 µM, first compound 0.316 µM
[10] = second compound 0.1 µM, first compound 1 µM
[11] = second compound 0.1 µM, first compound 3.16 µM
[12] = second compound 0.1 µM, first compound 10 µM
[13] = second compound 0.316 µM, first compound 0.0316 µM
[14] = second compound 0.316 µM, first compound 0.1 µM
[15] = second compound 0.316 µM, first compound 0.316 µM
[16] = second compound 0.316 µM, first compound 1 µM
[17] = second compound 0.316 µM, first compound 3.16 µM
[18] = second compound 0.316 µM, first compound 10 µM
[19] = second compound 1 µM, first compound 0.0316 µM
[20] = second compound 1 µM, first compound 0.1 µM
[21] = second compound 1 µM, first compound 0.316 µM
[22] = second compound 1 µM, first compound 1 µM
[23] = second compound 1 µM, first compound 3.16 µM
[24] = second compound 1 µM, first compound 10 µM
[25] = second compound 3.16 µM, first compound 0.0316 µM
[26] = second compound 3.16 µM, first compound 0.1 µM
[27] = second compound 3.16 µM, first compound 0.316 µM
[28] = second compound 3.16 µM, first compound 1 µM
[29] = second compound 3.16 µM, first compound 3.16 µM
[30] = second compound 3.16 µM, first compound 10 µM
[31] = second compound 10 µM, first compound 0.0316 µM
[32] = second compound 10 µM, first compound 0.1 µM
[33] = second compound 10 µM, first compound 0.316 µM
[34] = second compound 10 µM, first compound 1 µM
[35] = second compound 10 µM, first compound 3.16 µM
[36] = second compound 10 µM, first compound 10 µM
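Note: spheroids exposed to drugs for 7 days before readout.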
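Throughout, for viability, T/C: 100% = DMSO vehicle control wells.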

C#Cc1c(F)ccc2cc(O)cc(-c3ncc4c(N5CC6CCC(C5)N6)nc(OCC56CCCN5CC(F)C6)nc4c3F)c12 (stereo unspecified) + CN1CCN(c2cc(C(=O)Nc3cc4cc(-c5cnn(C)c5)ccc4cn3)ccn2)CC1
IC50 (second compound 0.0316 µM): > 10 µM | IC50 (second compound 0.1 µM): 0.501 µM | IC50 (second compound 0.316 µM): < 0.0316 µM | IC50 (second compound 1 µM): < 0.0316 µM | IC50 (second compound 3.16 µM): < 0.0316 µM | IC50 (second compound 10 µM): < 0.0316 µM | viability, T/C [1]: 98.9% | viability, T/C [2]: 92.6% | viability, T/C [3]: 87.8% | viability, T/C [4]: 93.7% | viability, T/C [5]: 91.6% | viability, T/C [6]: 74.1% | viability, T/C [7]: 51.6% | viability, T/C [8]: 52.2% | viability, T/C [9]: 50.8% | viability, T/C [10]: 48.6% | viability, T/C [11]: 47.7% | viability, T/C [12]: 45.4% | viability, T/C [13]: 5.98% | viability, T/C [14]: 5.2% | viability, T/C [15]: 5.69% | viability, T/C [16]: 4.19% | viability, T/C [17]: 5.76% | viability, T/C [18]: 4.81% | viability, T/C [19]: 0.92% | viability, T/C [20]: 0.91% | viability, T/C [21]: 0.75% | viability, T/C [22]: 1.82% | viability, T/C [23]: 1.86% | viability, T/C [24]: 1.68% | viability, T/C [25]: 1.56% | viability, T/C [26]: 2.17% | viability, T/C [27]: 1.31% | viability, T/C [28]: 2.48% | viability, T/C [29]: 2.22% | viability, T/C [30]: 3.07% | viability, T/C [31]: 0.96% | viability, T/C [32]: 0.95% | viability, T/C [33]: 1.74% | viability, T/C [34]: 1.58% | viability, T/C [35]: 2.68% | viability, T/C [36]: 1.54%

C=C(F)C(=O)N1CCN(c2nc(OCC3CCCN3C)nc3c2CCN(c2cccc4cccc(Cl)c24)C3)CC1CC#N (stereo unspecified) + CN1CCN(c2cc(C(=O)Nc3cc4cc(-c5cnn(C)c5)ccc4cn3)ccn2)CC1
IC50 (second compound 0.0316 µM): 4.84 µM | IC50 (second compound 0.1 µM): 3.19 µM | IC50 (second compound 0.316 µM): < 0.0316 µM | IC50 (second compound 1 µM): < 0.0316 µM | IC50 (second compound 3.16 µM): < 0.0316 µM | IC50 (second compound 10 µM): < 0.0316 µM | viability, T/C [1]: 82.8% | viability, T/C [2]: 93.9% | viability, T/C [3]: 82.3% | viability, T/C [4]: 95.2% | viability, T/C [5]: 73.6% | viability, T/C [6]: 9.9% | viability, T/C [7]: 47.9% | viability, T/C [8]: 51.7% | viability, T/C [9]: 50.4% | viability, T/C [10]: 51.6% | viability, T/C [11]: 50.4% | viability, T/C [12]: 4.78% | viability, T/C [13]: 4.71% | viability, T/C [14]: 4.05% | viability, T/C [15]: 6.86% | viability, T/C [16]: 5.08% | viability, T/C [17]: 3.01% | viability, T/C [18]: 0.46% | viability, T/C [19]: 1.31% | viability, T/C [20]: 1.26% | viability, T/C [21]: 0.91% | viability, T/C [22]: 1.47% | viability, T/C [23]: 1.43% | viability, T/C [24]: 0.85% | viability, T/C [25]: 1.01% | viability, T/C [26]: 1.11% | viability, T/C [27]: 2.16% | viability, T/C [28]: 1.83% | viability, T/C [29]: 1.72% | viability, T/C [30]: 0.4% | viability, T/C [31]: 0.93% | viability, T/C [32]: 1.28% | viability, T/C [33]: 2.22% | viability, T/C [34]: 1.62% | viability, T/C [35]: 1.63% | viability, T/C [36]: 1.23%

CC(CO)NC(=O)c1cc(-c2ccc(Cl)cc2)nn(-c2cnn(C)c2)c1=O (stereo unspecified) + CN1CCN(c2cc(C(=O)Nc3cc4cc(-c5cnn(C)c5)ccc4cn3)ccn2)CC1
IC50 (second compound 0.0316 µM): > 10 µM | IC50 (second compound 0.1 µM): 0.319 µM | IC50 (second compound 0.316 µM): < 0.0316 µM | IC50 (second compound 1 µM): < 0.0316 µM | IC50 (second compound 3.16 µM): < 0.0316 µM | IC50 (second compound 10 µM): < 0.0316 µM | viability, T/C [1]: 94.8% | viability, T/C [2]: 81.7% | viability, T/C [3]: 69.5% | viability, T/C [4]: 68.8% | viability, T/C [5]: 67.5% | viability, T/C [6]: 57.3% | viability, T/C [7]: 53.9% | viability, T/C [8]: 52.5% | viability, T/C [9]: 49% | viability, T/C [10]: 46.2% | viability, T/C [11]: 49.5% | viability, T/C [12]: 43.7% | viability, T/C [13]: 5.52% | viability, T/C [14]: 5.79% | viability, T/C [15]: 7.05% | viability, T/C [16]: 8.98% | viability, T/C [17]: 8.34% | viability, T/C [18]: 8.71% | viability, T/C [19]: 1.36% | viability, T/C [20]: 1.36% | viability, T/C [21]: 2.15% | viability, T/C [22]: 1.19% | viability, T/C [23]: 1.66% | viability, T/C [24]: 1.71% | viability, T/C [25]: 1.12% | viability, T/C [26]: 1.53% | viability, T/C [27]: 2.58% | viability, T/C [28]: 1.7% | viability, T/C [29]: 2.81% | viability, T/C [30]: 2.69% | viability, T/C [31]: 1.23% | viability, T/C [32]: 1.96% | viability, T/C [33]: 2.08% | viability, T/C [34]: 2.68% | viability, T/C [35]: 1.84% | viability, T/C [36]: 2.5%
